Source: PMC12508063, “Chloroindazole based estrogen receptor β ligands with favorable pharmacokinetics promote functional remyelination and visual recovery” (Scientific Reports, 2025)
Values joined by “and” are separate entries in the source; they are usually repeats but may differ in a detail not shown here. Equal values may be shown once.

What was measured:
[1] = molecular target: T1, ERβ (Homo sapiens, UniProt Q92731); assay: ER reporter gene assay in HEK 293 T cells (ER-luciferase reporter); format: cell-based; details: for Reporter gene assay raw data, ERb: ERb data block (head r19), 4 replicate columns; for ERb reporter gene assay raw data (response): four replicate columns per compound
T1 construct: expressed in transfected cells; host or cells: HEK 293 T cells

[2] = molecular target: T2, ERα (Homo sapiens, UniProt P03372); assay: as above; format: cell-based; details: for Reporter gene assay raw data, ERa: 4 replicate columns
T2 construct: expressed in transfected cells; host or cells: HEK 293 T cells
T2 sequence (P03372 1-595): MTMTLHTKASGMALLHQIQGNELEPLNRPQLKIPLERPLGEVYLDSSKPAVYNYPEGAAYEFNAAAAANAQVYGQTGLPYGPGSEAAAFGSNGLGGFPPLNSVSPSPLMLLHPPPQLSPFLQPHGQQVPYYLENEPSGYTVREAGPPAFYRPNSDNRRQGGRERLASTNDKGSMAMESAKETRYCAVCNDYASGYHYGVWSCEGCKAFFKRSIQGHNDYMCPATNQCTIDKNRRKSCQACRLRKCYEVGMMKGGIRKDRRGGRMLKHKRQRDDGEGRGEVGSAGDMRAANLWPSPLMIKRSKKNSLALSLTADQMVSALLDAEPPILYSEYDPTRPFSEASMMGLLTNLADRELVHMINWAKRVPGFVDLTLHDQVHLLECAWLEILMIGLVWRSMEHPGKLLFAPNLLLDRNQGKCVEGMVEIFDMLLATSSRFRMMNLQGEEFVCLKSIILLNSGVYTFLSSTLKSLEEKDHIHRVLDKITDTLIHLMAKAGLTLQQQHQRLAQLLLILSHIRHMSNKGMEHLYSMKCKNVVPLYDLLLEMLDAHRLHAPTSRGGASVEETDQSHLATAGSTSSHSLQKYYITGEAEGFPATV

T1 sequence (Q92731 whole entry, species assumed): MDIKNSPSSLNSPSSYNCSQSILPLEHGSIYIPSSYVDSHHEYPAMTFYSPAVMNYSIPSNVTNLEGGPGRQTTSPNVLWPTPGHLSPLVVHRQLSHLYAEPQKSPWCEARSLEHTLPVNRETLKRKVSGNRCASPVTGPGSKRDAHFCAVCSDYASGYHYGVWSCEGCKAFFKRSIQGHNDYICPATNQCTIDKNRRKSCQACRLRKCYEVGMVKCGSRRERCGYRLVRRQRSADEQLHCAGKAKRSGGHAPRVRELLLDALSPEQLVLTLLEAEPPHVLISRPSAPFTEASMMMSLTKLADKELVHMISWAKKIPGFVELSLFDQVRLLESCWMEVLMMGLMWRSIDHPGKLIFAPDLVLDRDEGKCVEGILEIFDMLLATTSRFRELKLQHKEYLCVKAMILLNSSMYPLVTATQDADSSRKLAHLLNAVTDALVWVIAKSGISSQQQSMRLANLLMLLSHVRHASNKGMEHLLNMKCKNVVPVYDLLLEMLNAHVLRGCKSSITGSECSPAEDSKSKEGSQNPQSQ

With C[C@]12CC[C@@H]3c4ccc(O)cc4CC[C@H]3[C@@H]1CC[C@@H]2O [Compound E2, estradiol] the “Reporter gene assay raw data, ERb” value ([1]; Log M -6) was 88.8232 and 101.64 and 110.514 and 90.7218, the “ERb reporter gene assay raw data (response)” value ([1]; Log M -6) was 84.0609 and 88.7479 and 111.697 and 94.4619 and the “Reporter gene assay raw data, ERb” value ([1]; Log M -6.47756) was 97.0869 and 99.8524 and 105.457 and 96.3817. The “ERb reporter gene assay raw data (response)” value ([1]; Log M -6.47756) was 91.3063 and 103.043 and 96.9565 and 108.694, the “Reporter gene assay raw data, ERb” value ([1]; Log M -6.95468) was 101.657 and 108.929 and 91.071 and 98.3432 and the “ERb reporter gene assay raw data (response)” value ([1]; Log M -6.95468) was 85.5094 and 93.8773 and 82.9145 and 86.4119. The “Reporter gene assay raw data, ERb” value ([1]; Log M -7.4318) was 88.9611 and 107.81 and 89.4793, the “ERb reporter gene assay raw data (response)” value ([1]; Log M -7.4318) was 92.1619 and 99.8727 and 93.6976 and 98.6683 and the “Reporter gene assay raw data, ERb” value ([1]; Log M -7.91009) was 87.7241 and 103.45 and 96.1824 and 92.6694. The “ERb reporter gene assay raw data (response)” value ([1]; Log M -7.91009) was 89.9017 and 89.3359 and 90.9076 and 106.617, the “Reporter gene assay raw data, ERb” value ([1]; Log M -8.3851) was 90.4631 and 100.397 and 90.4263 and 91.0339 and the “ERb reporter gene assay raw data (response)” value ([1]; Log M -8.3851) was 91.9536 and 86.2134 and 78.7089 and 97.5579. The “Reporter gene assay raw data, ERb” value ([1]; Log M -8.86328) was 79.9036 and 104.483 and 99.1546 and 93.2724, the “ERb reporter gene assay raw data (response)” value ([1]; Log M -8.86328) was 95.1963 and 89.1365 and 87.1229 and 89.1607 and the “Reporter gene assay raw data, ERb” value ([1]; Log M -9.34008) was 95.3149 and 101.905 and 91.5426 and 83.1517. The “ERb reporter gene assay raw data (response)” value ([1]; Log M -9.34008) was 83.69 and 95.3591 and 88.894 and 92.378, the “Reporter gene assay raw data, ERb” value ([1]; Log M -9.81816) was 104.147 and 95.8332 and 93.5201 and 92.5995 and the “ERb reporter gene assay raw data (response)” value ([1]; Log M -9.81816) was 83.8842 and 77.8861 and 83.3564 and 89.1956. The “Reporter gene assay raw data, ERb” value ([1]; Log M -10.2941) was 77.6845 and 76.952 and 81.0679 and 77.2912, the “ERb reporter gene assay raw data (response)” value ([1]; Log M -10.2941) was 80.3017 and 74.375 and 74.4575 and 76.8278 and the “Reporter gene assay raw data, ERb” value ([1]; Log M -10.7721) was 31.1486 and 35.6178 and 35.7979 and 36.2215. The “ERb reporter gene assay raw data (response)” value ([1]; Log M -10.7721) was 27.7709 and 32.5606 and 30.8658, the “Reporter gene assay raw data, ERb” value ([1]; Log M -11.248) was 7.1742 and 11.1236 and 8.004 and 9.347 and the “ERb reporter gene assay raw data (response)” value ([1]; Log M -11.248) was 5.759 and 5.232 and 4.796 and 6.634. For the same compound, the “ERb reporter gene assay raw data (response)” value ([1]; Log M -13) was -0.5566 and 0.8119 and -0.8119 and 0.5566.
In the case of Oc1ccc([C@@H]2Oc3ccc(O)cc3[C@@H]3CCC[C@@H]32)cc1 [LY500307], the “Reporter gene assay raw data, ERa” value ([2]; Log M -6, first ERa data block (head r2)) is reported as 95.3498 and 76.8258 and 78.8468 and 79.4968, the “Reporter gene assay raw data, ERa” value ([2]; Log M -6, second ERa data block (head r34)) is reported as 84.2897 and 88.4184 and 89.8518 and 82.7548 and the “Reporter gene assay raw data, ERa” value ([2]; Log M -6.47756, first ERa data block (head r2)) is reported as 81.0788 and 76.9627 and 81.3158 and 77.2241. For the same compound, the “Reporter gene assay raw data, ERa” value ([2]; Log M -6.47756, second ERa data block (head r34)) was 83.7373 and 79.8906 and 79.6354 and 82.4556, the “Reporter gene assay raw data, ERa” value ([2]; Log M -6.95468, first ERa data block (head r2)) was 64.5612 and 69.8569 and 66.3267 and 71.602 and the “Reporter gene assay raw data, ERa” value ([2]; Log M -6.95468, second ERa data block (head r34)) was 71.7534 and 71.241 and 72.7885 and 70.2307. The “Reporter gene assay raw data, ERa” value ([2]; Log M -7.4318, first ERa data block (head r2)) was 51.8548 and 63.5801 and 59.7283 and 55.8203, the “Reporter gene assay raw data, ERa” value ([2]; Log M -7.4318, second ERa data block (head r34)) was 63.921 and 68.3671 and 59.0742 and 56.656 and the “Reporter gene assay raw data, ERa” value ([2]; Log M -7.91009, first ERa data block (head r2)) was 45.1889 and 57.478 and 50.9227 and 51.1094. For the same compound, the “Reporter gene assay raw data, ERa” value ([2]; Log M -7.91009, second ERa data block (head r34)) was 50.9317 and 49.5895 and 46.336 and 52.0394, the “Reporter gene assay raw data, ERa” value ([2]; Log M -8.3851, first ERa data block (head r2)) was 49.7552 and 47.0158 and 40.3598 and 42.6852 and the “Reporter gene assay raw data, ERa” value ([2]; Log M -8.3851, second ERa data block (head r34)) was 51.0127 and 45.6306 and 44.3415 and 46.4772. For the same compound, the “Reporter gene assay raw data, ERa” value ([2]; Log M -8.86328, first ERa data block (head r2)) was 31.993 and 35.5083 and 37.6374 and 35.7027, the “Reporter gene assay raw data, ERa” value ([2]; Log M -8.86328, second ERa data block (head r34)) was 42.4323 and 38.564 and 35.9099 and 35.545 and the “Reporter gene assay raw data, ERa” value ([2]; Log M -9.34008, first ERa data block (head r2)) was 17.3101 and 15.2621 and 18.8474 and 18.6811. The “Reporter gene assay raw data, ERa” value ([2]; Log M -9.34008, second ERa data block (head r34)) was 21.5928 and 20.6886 and 16.8312 and 20.0407, the “Reporter gene assay raw data, ERa” value ([2]; Log M -9.81816, first ERa data block (head r2)) was 8.154 and 4.486 and 4.8306 and 4.983 and the “Reporter gene assay raw data, ERa” value ([2]; Log M -9.81816, second ERa data block (head r34)) was 6.6406 and 6.967 and 4.962 and 7.591. The “Reporter gene assay raw data, ERa” value ([2]; Log M -10.2941, first ERa data block (head r2)) was 3.132 and 9.724 and 4.561 and 11.8118, the “Reporter gene assay raw data, ERa” value ([2]; Log M -10.2941, second ERa data block (head r34)) was 3.775 and 13.8366 and 4.292 and 12.8533 and the “Reporter gene assay raw data, ERa” value ([2]; Log M -10.7721, first ERa data block (head r2)) was 1.451 and 1.5656 and -0.4526 and 1.85. For the same compound, the “Reporter gene assay raw data, ERa” value ([2]; Log M -10.7721, second ERa data block (head r34)) was -0.2019 and 1.235 and 0.142 and 1.333, the “Reporter gene assay raw data, ERa” value ([2]; Log M -11.248, first ERa data block (head r2)) was -0.6879 and -0.2253 and -0.584 and 0.4876 and the “Reporter gene assay raw data, ERa” value ([2]; Log M -11.248, second ERa data block (head r34)) was -0.9111 and -0.3248 and 1.487 and 1.068. The “ERa reporter gene assay raw data (response)” value ([2]; Log M -13, four replicate columns per compound) was 0.8253 and -0.8253 and 1.478 and -1.478.
